Paper PMC3574231 (ACS chemical biology, 2012)

Experiments:
[1] = Reversed-phase HPLC retention; type: physicochemical; details: chromatographic, C-18 column

Substance | Retention time by reversed-phase HPLC (measure of overall hydrophobicity) [1] | Intracellular CAP fluorescence after pretreatment with 1 mM sodium pervanadate (MCF-7 and HEK293 cells)
cyclo(FΦRRRRQ) [Peptide 11] | virtually identical retention times | 
cyclo[(pCAP)FΦRRRRQ] (head to tail) [cyclic pCAP] |  | dramatically reduced
